Biological target: T1, human ACC2 (Homo sapiens, UniProt O00763)
T1 construct: made in house; host or cells: insect cells (baculoviral expression system)
Assay: ACC2 assay, spectrophotometric 384 well assay (NADH-linked, coupled lactate dehydrogenase/pyruvate kinase)
Format: biochemical
Conditions: ACC2 assay, hACC2 construct lacking 128 N-terminal amino acids, 25° C., 340 nm; read-out: IC50
Protocol: Spectrophotometric 384 Well Assay
Malonyl CoA formation by acetyl CoA carboxylases is stoichometrically linked to the consumption of ATP. ACC2 activity is measured in a NADH-linked kinetic method measuring ADP generated during the ACC reaction using a coupled lactate dehydrogenase/pyruvate kinase reaction.
For biological testing, a human ACC2 construct which lacks the 128 amino acids at the N-terminus for increased solubility (nt 385-6966 in Genbank entry AJ575592) is cloned. The protein is then expressed in insect cells using a baculoviral expression system. Protein purification is performed by anion exchange.
All compounds are dissolved in dimethyl sulfoxide (DMSO) to a concentration of 10 mM.
Assay reactions are then carried out in 384-well plates, with hACC2 in an appropriate dilution and at final assay concentrations (f.c.) of 100 mM Tris (pH 7.5), 10 mM trisodium citrate, 25 mM KHCO3, 10 mM MgCl2, 0.5 mg/mL BSA, 3.75 mM reduced L-glutathione, 15 U/mL lactate dehydrogenase, 0.5 mM phosphoenolpyruvate, 15 U/mL pyruvate kinase, compounds at different concentrations at final DMSO concentrations of 1%.
The enzymatic reaction is then started by addition of a mixture of NADH, acetyl Coenzyme A (both 200 μM f.c.) and ATP (500 uM f.c.). The decrease of the optical density (slope S) is then determined at 25° C. at a wavelength of 340 nm over 15 minutes in a spectrophotometric reader.
Each assay microtiter plate contains wells with vehicle instead of compound as controls for the non-inhibited enzyme (100% CTL; ‘HIGH’) and wells without acetyl-CoA as controls for non-specific NADH degradation (0% CTL; ‘LOW’).
The slope S is used for calculation of % CTL=(S(compound)−S('LOW'))/(S('HIGH')−S('LOW'))*100. Compounds will give values between 100% CTL (no inhibition) and 0% CTL (complete inhibition).
For IC50 value determination, the sample slope in the presence of the test compound after subtraction of the low controls (S(compound)−S('LOW')) are used.
An IC50 value is derived from the compound slopes at different dosages after subtraction of the low controls (S(compound)−S('LOW')) by non-linear regression curve fitting (equation y=(A+((B−A)/(1+((C/x)^D))))).

T1 sequence (O00763 129-2458 limits assumed): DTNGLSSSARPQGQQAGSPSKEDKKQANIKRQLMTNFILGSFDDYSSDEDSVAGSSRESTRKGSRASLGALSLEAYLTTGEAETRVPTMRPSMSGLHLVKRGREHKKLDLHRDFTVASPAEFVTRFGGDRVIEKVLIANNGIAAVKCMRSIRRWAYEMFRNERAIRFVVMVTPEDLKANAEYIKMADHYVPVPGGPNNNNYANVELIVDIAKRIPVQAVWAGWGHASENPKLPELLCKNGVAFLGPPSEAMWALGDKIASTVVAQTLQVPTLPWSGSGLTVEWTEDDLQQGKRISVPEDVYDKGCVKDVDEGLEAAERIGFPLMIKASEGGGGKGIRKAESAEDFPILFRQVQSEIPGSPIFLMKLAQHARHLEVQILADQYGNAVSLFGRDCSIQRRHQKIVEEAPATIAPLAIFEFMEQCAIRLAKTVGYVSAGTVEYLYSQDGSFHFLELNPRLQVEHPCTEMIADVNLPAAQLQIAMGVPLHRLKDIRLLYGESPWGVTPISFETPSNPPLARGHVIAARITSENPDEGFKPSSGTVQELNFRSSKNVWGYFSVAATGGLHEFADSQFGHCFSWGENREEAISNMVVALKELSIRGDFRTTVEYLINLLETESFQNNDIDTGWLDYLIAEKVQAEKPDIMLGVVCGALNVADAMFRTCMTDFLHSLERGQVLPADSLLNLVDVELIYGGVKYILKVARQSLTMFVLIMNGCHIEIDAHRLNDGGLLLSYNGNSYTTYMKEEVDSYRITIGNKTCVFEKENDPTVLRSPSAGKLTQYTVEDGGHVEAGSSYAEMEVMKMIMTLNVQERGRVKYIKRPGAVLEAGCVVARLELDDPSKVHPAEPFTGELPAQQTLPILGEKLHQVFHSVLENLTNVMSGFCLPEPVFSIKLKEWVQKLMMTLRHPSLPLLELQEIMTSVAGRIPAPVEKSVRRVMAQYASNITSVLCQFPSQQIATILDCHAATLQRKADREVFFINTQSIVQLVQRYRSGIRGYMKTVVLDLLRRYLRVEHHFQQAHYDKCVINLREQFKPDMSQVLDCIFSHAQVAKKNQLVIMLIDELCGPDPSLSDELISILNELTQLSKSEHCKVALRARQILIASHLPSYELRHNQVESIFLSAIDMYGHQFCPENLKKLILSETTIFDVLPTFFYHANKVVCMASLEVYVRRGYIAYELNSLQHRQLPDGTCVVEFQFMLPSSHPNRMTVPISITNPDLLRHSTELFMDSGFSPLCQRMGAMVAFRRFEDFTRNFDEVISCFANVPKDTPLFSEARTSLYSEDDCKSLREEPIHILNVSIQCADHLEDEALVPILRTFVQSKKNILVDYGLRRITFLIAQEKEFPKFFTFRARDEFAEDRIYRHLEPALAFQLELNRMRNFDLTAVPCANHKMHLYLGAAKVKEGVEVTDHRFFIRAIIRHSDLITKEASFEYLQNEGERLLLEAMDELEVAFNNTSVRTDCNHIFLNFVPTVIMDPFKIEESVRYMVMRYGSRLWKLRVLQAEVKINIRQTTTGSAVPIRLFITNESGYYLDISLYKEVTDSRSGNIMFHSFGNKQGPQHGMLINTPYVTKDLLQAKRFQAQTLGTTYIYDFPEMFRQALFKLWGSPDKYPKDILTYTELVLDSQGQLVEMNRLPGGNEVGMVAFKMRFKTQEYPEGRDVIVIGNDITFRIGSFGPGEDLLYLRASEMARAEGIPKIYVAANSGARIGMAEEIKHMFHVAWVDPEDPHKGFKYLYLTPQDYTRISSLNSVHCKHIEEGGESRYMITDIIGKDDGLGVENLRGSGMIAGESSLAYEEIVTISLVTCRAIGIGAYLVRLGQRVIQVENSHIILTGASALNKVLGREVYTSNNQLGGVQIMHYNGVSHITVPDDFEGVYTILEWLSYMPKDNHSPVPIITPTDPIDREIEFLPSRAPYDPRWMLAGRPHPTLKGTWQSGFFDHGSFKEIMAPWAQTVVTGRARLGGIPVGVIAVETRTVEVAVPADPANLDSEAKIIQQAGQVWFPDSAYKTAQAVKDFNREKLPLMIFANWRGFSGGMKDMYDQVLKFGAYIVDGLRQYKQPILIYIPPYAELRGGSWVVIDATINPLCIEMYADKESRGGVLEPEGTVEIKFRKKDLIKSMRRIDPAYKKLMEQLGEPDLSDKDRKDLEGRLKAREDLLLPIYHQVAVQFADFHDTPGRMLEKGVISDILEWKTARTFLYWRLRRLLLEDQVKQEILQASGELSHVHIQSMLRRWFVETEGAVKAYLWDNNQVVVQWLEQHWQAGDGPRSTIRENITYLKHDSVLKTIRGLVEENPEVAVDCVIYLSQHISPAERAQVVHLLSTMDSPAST

Structure (SMILES)	IC50 [nM]
CC(=O)N[C@@H](C)c1ccc(C2CCN(c3ccc(O[C@@H]4CCOC4)cc3F)CC2)cc1 [Example 1.63]	1300
CCCOc1ccc(N2CCC(c3ccc([C@H](C)NC(C)=O)cc3)CC2)c(F)c1 [Example 1.64]	70
CC(=O)N[C@@H](C)c1ccc(C2CCN(c3ccc(O)cc3F)CC2)cc1 [Example 1.65]	20000
CC(=O)N[C@@H](C)c1ccc(C2CCN(c3ccc4nc(C)sc4c3)CC2)cc1 [Example 1.66]	420
CC(=O)N[C@@H](C)c1ccc(C2CCN(c3ccc4c(c3)OCO4)CC2)cc1 [Example 1.67]	360
CC(=O)N[C@@H](C)c1ccc(C2CCN(c3ccc4oc(=O)[nH]c4c3)CC2)cc1 [Example 1.68]	23900
CC(=O)N[C@@H](C)c1ccc(C2CCN(c3ccc4sccc4c3)CC2)cc1 [Example 1.69]	4000
CC(=O)N[C@@H](C)c1ccc(C2CCN(c3ccc4nc(C)n(C)c4c3)CC2)cc1 [Example 1.70]	7400
CC(=O)N[C@@H](C)c1ccc(C2CCN(c3ccc4oc(-c5ccccc5)nc4c3)CC2)cc1 [Example 1.71]	80
CC(=O)N[C@@H](C)c1ccc(C2CCN(c3ccc4c(c3)ncn4C)CC2)cc1 [Example 1.72]	23700
CC(=O)N[C@@H](C)c1ccc(C2CCN(c3cc4c(cc3C#N)OCO4)CC2)cc1 [Example 1.73]	3400
CC(=O)N[C@@H](C)c1ccc(C2CCN(c3ccc(OC(C)C)cc3F)CC2)cc1 [Example 1.74]	100
CC(=O)N[C@@H](C)c1ccc(C2CCN(c3ccc4[nH]cc(C)c4c3)CC2)cc1 [Example 1.75]	2200
CC(=O)N[C@@H](C)c1ccc(C2CCN(c3ccc4[nH]c(C)cc4c3)CC2)cc1 [Example 1.76]	1900
C[C@H](NC(=O)C1CC1)c1ccc(C2CCN(c3cccc(OCC4CC4)c3)CC2)cc1 [Example 1.77]	900
CC(C)Oc1cccc(N2CCC(c3ccc([C@H](C)NC(=O)C4CC4)cc3)CC2)c1 [Example 1.78]	3400
C[C@H](NC(=O)C1CC1)c1ccc(C2CCN(c3ccc(OCC4CC4)cc3F)CC2)cc1 [Example 1.79]	180
C[C@H](NC(=O)N(C)C)c1ccc(C2CCN(c3cccc(OCC4CC4)c3)CC2)cc1 [Example 1.80]	530
CC(C)Oc1cccc(N2CCC(c3ccc([C@H](C)NC(=O)N(C)C)cc3)CC2)c1 [Example 1.81]	280
CCOc1ccc(N2CCC(c3ccc([C@H](C)NC(=O)C4CC4)cc3)CC2)c(F)c1 [Example 1.82]	160
CCCOc1ccc(N2CCC(c3ccc([C@H](C)NC(=O)C4CC4)cc3)CC2)c(F)c1 [Example 1.83]	100
C[C@H](NC(=O)N(C)C)c1ccc(C2CCN(c3ccc(OCC4CC4)cc3F)CC2)cc1 [Example 1.84]	180
CCOc1ccc(N2CCC(c3ccc([C@H](C)NC(=O)N(C)C)cc3)CC2)c(F)c1 [Example 1.85]	140

Structure (SMILES)	IC50 [nM]
CCCOc1ccc(N2CCC(c3ccc([C@H](C)NC(=O)N(C)C)cc3)CC2)c(F)c1 [Example 1.86]	210
C[C@H](NC(=O)C1CC1)c1ccc(C2CCN(c3ccc4c(c3)OCC(C)(C)CO4)CC2)cc1 [Example 1.87]	1200
CC(=O)N[C@@H](C)c1ccc(C2CCN(c3cccc(OC4CCC4)c3)CC2)cc1 [Example 1.88]	540
CCCOc1cccc(N2CCC(c3ccc([C@H](C)NC(C)=O)cc3)CC2)c1 [Example 1.89]	390
CCC(C)Oc1cccc(N2CCC(c3ccc([C@H](C)NC(C)=O)cc3)CC2)c1 (stereo partly drawn) [Example 1.90]	230
Cc1cc(OC2CC2)ccc1N1CCC(c2ccc([C@H](C)NC(=O)C3CC3)cc2)CC1 [Example 1.91]	600
CC(=O)N[C@@H](C)c1ccc(C2CCN(c3ccc(OC4CC4)cc3C)CC2)cc1 [Example 1.92]	120
COc1cc(OC2CC2)ccc1N1CCC(c2ccc([C@H](C)NC(=O)C3CC3)cc2)CC1 [Example 1.93]	580
CC(=O)N[C@@H](C)c1ccc(C2CCN(c3ccc(OC4CC4)cc3OC3CC3)CC2)cc1 [Example 1.94]	210
COc1ccc(N2CCC(c3ccc([C@H](C)NC(C)=O)cc3)CC2)c(F)c1 [Example 1.96]	360
COCCOc1ccc(N2CCC(c3ccc([C@H](C)NC(C)=O)cc3)CC2)c(F)c1 [Example 1.97]	530
CC(=O)N[C@@H](C)c1ccc(C2CCN(c3cccc4c3OCCO4)CC2)cc1 [Example 1.98]	470
COCCCOc1ccc(N2CCC(c3ccc([C@H](C)NC(C)=O)cc3)CC2)c(F)c1 [Example 1.99]	330
CCOc1cnc(N2CCC(c3ccc([C@H](C)NC(C)=O)cc3)CC2)c(F)c1 [Example 1.100]	520
CC(=O)N[C@@H](C)c1ccc(C2CCN(c3ccc(OCCC4CC4)cc3F)CC2)cc1 [Example 1.101]	50
CC(=O)N[C@@H](C)c1ccc(C2CCN(c3ncc(OCC4CC4)cc3F)CC2)cc1 [Example 1.104]	200
CCCOc1cnc(N2CCC(c3ccc([C@H](C)NC(C)=O)cc3)CC2)c(F)c1 [Example 1.105]	240
COc1cc(OC2CC2)ccc1N1CCC(c2ccc([C@H](C)NC(=O)N(C)C)cc2)CC1 [Example 1.106]	170
C[C@H](NC(=O)N(C)C)c1ccc(C2CCN(c3ccnc(Oc4cncnc4)c3)CC2)cc1 [Example 1.107]	520
C[C@H](NC(=O)C1CC1)c1ccc(C2CCN(c3ccnc(Oc4cncnc4)c3)CC2)cc1 [Example 1.108]	930
CC(=O)N[C@@H](C)c1ccc(C2CCN(c3ccc(OCCn4ccnc4)cc3)CC2)cc1 [Example 1.109]	3100
CC(=O)N[C@@H](C)c1ccc(C2CCN(c3ccc(Oc4cncnc4)nc3)CC2)cc1 [Example 1.110]	4500
C[C@H](NC(=O)N(C)C)c1ccc(C2CCN(c3ccc(OC4CC4)cc3)CC2)cc1 [Example 1.112]	210

The remaining lines, values ahead:

IC50 [nM]	Structure (SMILES)
140	COC(=O)N[C@@H](C)c1ccc(C2CCN(c3ccc(OC4CC4)cc3)CC2)cc1 [Example 1.113]
130	CC(C)COc1ccc(N2CCC(c3ccc([C@H](C)NC(=O)C4CC4)cc3)CC2)cc1 [Example 1.114]
110	CCCOc1ccc(N2CCC(c3ccc([C@H](C)NC(=O)C4CC4)cc3)CC2)c(C#N)c1 [Example 1.115]
770	CCCOc1ccc(N2CCC(c3ccc([C@H](C)NC(=O)C4CC4)cc3)CC2)c(OC)c1 [Example 1.116]
60	C[C@H](NC(=O)C1CC1)c1ccc(C2CCN(c3ccc(OC4CCCC4)cc3)CC2)cc1 [Example 1.117]
120	CC(C)COc1ccc(N2CCC(c3ccc([C@H](C)NC(=O)C4CC4)cc3)CC2)nc1 [Example 1.118]
260	CC(C)Oc1ccc(N2CCC(c3ccc([C@H](C)NC(=O)C4CC4)cc3)CC2)cc1 [Example 1.119]
250	CC(C)Oc1cc(N2CCC(c3ccc([C@H](C)NC(=O)C4CC4)cc3)CC2)ccn1 [Example 1.120]
8100	CCOc1ccc(N2CCC(c3ccc([C@H](C)NC(=O)C4CC4)cc3)CC2)c(OCC)c1 [Example 1.121]
120	CC(C)COc1ccc(N2CCC(c3ccc([C@H](C)NC(=O)N(C)C)cc3)CC2)cc1 [Example 1.122]
70	CCCOc1ccc(N2CCC(c3ccc([C@H](C)NC(=O)N(C)C)cc3)CC2)c(C#N)c1 [Example 1.123]
180	CCCOc1ccc(N2CCC(c3ccc([C@H](C)NC(=O)N(C)C)cc3)CC2)c(OC)c1 [Example 1.124]
100	C[C@H](NC(=O)N(C)C)c1ccc(C2CCN(c3ccc(OC4CCCC4)cc3)CC2)cc1 [Example 1.125]
230	CC(C)COc1ccc(N2CCC(c3ccc([C@H](C)NC(=O)N(C)C)cc3)CC2)nc1 [Example 1.126]
330	CC(C)Oc1ccc(N2CCC(c3ccc([C@H](C)NC(=O)N(C)C)cc3)CC2)cc1 [Example 1.127]
120	CC(C)Oc1cc(N2CCC(c3ccc([C@H](C)NC(=O)N(C)C)cc3)CC2)ccn1 [Example 1.128]
3500	CCOc1ccc(N2CCC(c3ccc([C@H](C)NC(=O)N(C)C)cc3)CC2)c(OCC)c1 [Example 1.129]
80	CCC(C)Oc1ccc(N2CCC(c3ccc([C@H](C)NC(=O)OC)cc3)CC2)cc1 (stereo partly drawn) [Example 1.130]
190	CCCOc1ccc(N2CCC(c3ccc([C@H](C)NC(=O)OC)cc3)CC2)c(C#N)c1 [Example 1.131]
840	CCCOc1ccc(N2CCC(c3ccc([C@H](C)NC(=O)OC)cc3)CC2)c(OC)c1 [Example 1.132]

Source: patent US9006450B2 (Boehringer Ingelheim International GmbH, priority 2010, dated 2015)
